Consider 50 molecules from patent publication US9328369B2, “Process for production of useful substance, and surfactant for use in the process” (priority 2009, dated 2016).

This assay relates to Escherichia coli (α). Briefly: Screening of secretion efficiency, alkaline phosphatase expressing strain. It is filed as cell-based. Conditions: surfactant 1 wt %; 37° C., 1 hour; ELISA, anti-His-tag antibody. The source says:
An alkaline phosphatase (phoA) gene of an Escherichia coli strain W3110 was amplified by the PCR method using primers 1 and 2 (Table 4). After being treated with restriction enzymes NdeI and BamHI, a PCR fragment was bound with an NdeI restriction enzyme site and with a BamHI restriction enzyme site of a pET-22b plasmid (product of Novagen). Then, the plasmid was transformed into an AG1 (DE3) Escherichia coli strain formed by transforming an Escherichia coli strain AG1 (product of TOYOBO Co., LTD.) with use of a λDE3 Lysogenization Kit (product of Novagen). In this manner, an alkaline phosphatase expressing strain (a) was formed.
A pdxA gene of an Escherichia coli strain W3110 was amplified by the PCR method using primers 5 and 6 (Table 4). After being treated with restriction enzymes NdeI and BamHI, a PCR fragment was bound to an NdeI restriction enzyme site and a BamHI restriction enzyme site of a pET-22b plasmid (product of Novagen). Then, the plasmid was transformed into an AG1 (DE3) Escherichia coli strain to form a PdxA expressing strain (γ).
In this manner, culture solutions were prepared.
(2) The strains were collected using a centrifuge (4,000 G, 4° C., 15 minutes). Each of the collected Escherichia coli strains was resuspended in 1 mL of a TB culture solution (product of Difco) and chloramphenicol (30 mg/L) and IPTG (100 μM) were added thereto. Shake culture at 37° C. for 3 hours induced expression of phoA, torA, and pdxA.
(3) Subsequently, harvesting using a centrifuge was carried out again (4,000 G, 4° C., 15 minutes). Each of the collected Escherichia coli strains was resuspended in 2.5 mL of a Tris-NaCl buffer solution (50 mM Tris (pH 7.5), 100 mM NaCl). The resulting solution was divided into 25-μL portions at a time to be mixed with 25 μL of a Tris-NaCl buffer solution.
(4) Then, the solution was allowed to stand at 37° C. for 1 hour. The supernatant solution was collected and diluted in a Tris-NaCl buffer solution to a proper concentration. Here, the quantification of the recombinant protein in the resulting solution was carried out by ELISA assay with use of an anti-His-tag antibody. The sample prior to the centrifugation in the process (3) was treated with ultrasonic waves (200 W, 10 minutes) and the quantification of the recombinant protein therein was similarly carried out by ELISA assay with use of an anti-His-tag antibody. The ratio of lysed bacteria was obtained with use of Escherichia coli (γ), and the secretion efficiencies of the recombinant proteins of Escherichia coli (α) and (β) were calculated by using the following formula. […] Secretion efficiency (%)=100×{(X/Y)−Z}.
In the formula, “X” represents the amount of the recombinant protein in the culture solution after removal of bacterial cells by centrifugation in the case of using Escherichia coli (α) or (β).
“Y” represents the amount of the whole recombinant protein in the culture solution in the case of using Escherichia coli (α) or (β).
“Z” represents the ratio of lysed bacteria obtained with use of Escherichia coli (γ), which is determined by the following formula: Z=Z1/Z2.
In the formula, “Z1” represents the amount of the recombinant protein in the culture solution which remains after removal of bacterial cells by centrifugation in the case of using Escherichia coli (γ).
“Z2” represents the amount of the whole recombinant protein in the culture solution in the case of using Escherichia coli (γ).
Escherichia coli (α) and (β) were each cultured in the same manner as in the above case except that polyoxyethylene (3 mol) tridecyl ether sodium acetate as the surfactant (A) was added right after the resuspension of the Escherichia coli in the buffer solution in the process (3) of A-0, in an amount of 1% by weight on the basis of the weight of the suspension of the bacterium. The secretion efficiency was calculated according to the above-mentioned definition.
As for “1,2-dodecandiol monooxyethylene adduct [A-4]”, the “Secretion efficiency (%) Escherichia coli (α)” value is recorded as 90.7%.
On to “2-alkyl-N-carboxymethyl-N-hydroxyethyl imidazolinium betaine [A-23]”, for which the “Secretion efficiency (%) Escherichia coli (α)” value is 20.2%.
As to `CCCCCCCCCCCCCCCCCC[N+](C)(C)C.[Cl-]` [A-15, Stearyl trimethyl ammonium chloride], the “Secretion efficiency (%) Escherichia coli (α)” value is reported as 37.3%.
The result for `CCCCCCCCCC[N+](C)(C)CCCCCCCCCC.[Cl-]` [A-20, Didecyl dimethylammonium chloride] reads 28.7%.
In the case of `CCCCCCCCCC[N+](C)(C)CCCCCCCCCC.[Cl-]` [A-48, Didecyl dimethyl ammonium chloride] it was 2.7%.
The result for `CCCCCCCCCCCCCCCCCC[N+](C)(C)CCCCCCCCCCCCCCCCCC.[Cl-]` [A-50, Distearyl dimethyl ammonium chloride] reads 2.3%; that for `CCCCCCCCCCCCOS(=O)(=O)[O-].[Na+]` [A-69, Sodium lauryl sulfate], 0.0%; that for `C[C@H](CCC(=O)[O-])[C@H]1CC[C@H]2[C@@H]3[C@H](O)C[C@@H]4C[C@H](O)CC[C@]4(C)[C@H]3C[C@H](O)[C@]12C.[Na+]` [A-82, sodium cholate], 0.0%.
Consider Behenylamide propyldimethylamine [A-47], for which the “Secretion efficiency (%) Escherichia coli (α)” value is reported as 2.8%.
The result for “Didecyl dimethyl ammonium adipate [A-42]” reads 4.3%.
Turning to “EO 3 mol adduct of higher alcohol (C11 to C 15) [A-10]”, the “Secretion efficiency (%) Escherichia coli (α)” value is on record as 56.9%.
The result for EO 6 mol adduct of decyl alcohol [A-12] reads 53.1%.
The result for “EO 10 mol adduct of cured castor oil [A-55]” reads 1.7%; that for “EO 10 mol adduct of oleyl alcohol [A-59]”, 1.1%; that for “EO 20 mol adduct of sorbitan trioleate [A-41]”, 4.6%.
The result for “EO 24 mol adduct trilaurate of trimethylolpropane [A-64]” reads 0.5%; that for “EO 25 mol adduct of cured castor oil [A-44]”, 3.0%; that for “Ester thiodipropionate of polyoxyethylene (3 mol) alkyl (C12, C15) ether [A-25]”, 11.8%.
As for “Isostearyl alcohol polyoxyethylene (5 mol) adduct sodium ether carboxylate [A-52]”, the “Secretion efficiency (%) Escherichia coli (α)” value came out at 2.2%.
For “Isostearylalcohol polyoxyethylene (5 mol) sodium phosphate [A-31]”, the “Secretion efficiency (%) Escherichia coli (α)” value was found to be 6.2%.
The result for “Lanolin fatty acid aminopropyl ethylene dimethyl ammonium ethyl sulfate [A-28]” reads 9.2%; that for “Lauryl diphenyl ether sodium disulfonate [A-74]”, 0.0%.
The result for “Oleic acid 4.5 mol ester of sorbitol EO 40 mol adduct [A-63]” reads 0.7%.
In the case of “PO 20 mol and EO 9 mol adduct of ethylhexanol [A-51]” it was 2.3%.
Consider “Palm oil fatty acid diethanol amide [A-2]”, for which the “Secretion efficiency (%) Escherichia coli (α)” value is listed as 97.5%.
The result for Palm oil fatty acid sorbitan [A-54] reads 1.7%.
Consider “Polyethylene glycol diisostearate [A-22]”, for which the “Secretion efficiency (%) Escherichia coli (α)” value is recorded as 26.2%.
In the case of “Polyethylene glycol diisostearate [A-38]” it was 5.1%; in that of “Polyethylene glycol monoisostearate [A-29]”, 7.6%; in that of “Polyethylene glycol monoisostearate [A-40]”, 4.9%.
The result for “Polyoxyethylene (3 mol) lauryl ether acetate [A-24]” reads 16.1%; that for “Polyoxyethylene (20 mol) sorbitan monolaurate [A-56]”, 1.6%; that for “Polyoxyethylene (20 mol) sorbitan monooleate [A-37]”, 5.2%.
In the case of “Polyoxyethylene (Mw = 190) stearic acid diester [A-33]” it was 5.5%.
In the case of “Polyoxyethylene (Mw = 200) oleate monoester [A-35]”, the “Secretion efficiency (%) Escherichia coli (α)” value is on record as 5.3%.
The result for “Polyoxyethylene (Mw = 300) oleate diester [A-57]” reads 1.5%; that for “Polyoxyethylene (Mw = 400) oleate monoester [A-58]”, 1.3%.
For the molecule “Polyoxyethylene glyceryl triisostearate [A-32]”, the “Secretion efficiency (%) Escherichia coli (α)” value was determined as 5.9%.
In the case of Polyoxyethylene isostearyl ether [A-34] it was 5.3%.
In the case of “Polyoxyethylene(10 mol)cetyl ether [A-65]” it was 0.5%.
The result for “Polyoxyethylene(EO 20 mol)sorbitan monostearate [A-72]” reads 0.0%.
“Polyoxyethylene(Mw = 600)oleate monoester [A-67]”: the “Secretion efficiency (%) Escherichia coli (α)” value came out at 0.3%.
On to “Polyoxyethylene(Mw = 1000)dioleate [A-66]”, for which the “Secretion efficiency (%) Escherichia coli (α)” value is listed as 0.3%.
Consider “Sodium dodecyl diphenyl ether disulfonate [A-8]”, for which the “Secretion efficiency (%) Escherichia coli (α)” value is reported as 79.1%.
The result for “Sodium polyoxyethylene (2.5 mol) laurylether sulfate [A-11]” reads 53.2%; that for Sorbitan monooleate [A-43], 3.5%; that for Sorbitan trioleate [A-49], 2.4%.
In the case of “Stearylamine polyoxyethylene (15 mol) adduct [A-26]” it was 11.0%; in that of “Triethanol amine alkyl (C12, C13) sulfate [A-18]”, 30.7%; in that of “polyoxyethylene-p-isooctyl phenol [A-16]”, 36.7%.
